Among the data in PubChem BioAssay AID1259407 (Chemical Carcinogenesis Research Information System (CCRIS), 2018) are mutagenic call values, retold here.

Structures are written as SMILES. Active and inactive are the calls of the source. How the calls were made is not given here.

This series relates to CCRIS mutagenicity, Ames/micronucleus/aberration tests. The series is described as follows: CCRIS mutagenicity studies.
Setting [1] is: Test System: AMES SALMONELLA TYPHIMURIUM, Strain/Indicator: TA100, Metabolic Activation: NONE, Method: STANDARD PLATE.
The mark [2] stands for this setting: Test System: AMES SALMONELLA TYPHIMURIUM, Strain/Indicator: TA1537, Metabolic Activation: NONE, Method: STANDARD PLATE.

For the compound `C=CCc1ccc(OC)cc1`, the mutagenic call (Test System: AMES SALMONELLA TYPHIMURIUM, Strain/Indicator: TA98, Metabolic Activation: HAMSTER, LIVER, S-9, AROCLOR 1254 (10%), Method: PREINCUBATION) is “inactive; negative”; the mutagenic call (Test System: AMES SALMONELLA TYPHIMURIUM, Strain/Indicator: TA98, Metabolic Activation: NONE, Method: PREINCUBATION) is “inactive; negative”; the mutagenic call (Test System: AMES SALMONELLA TYPHIMURIUM, Strain/Indicator: TA98, Metabolic Activation: NONE, Method: STANDARD PLATE) was “inactive; negative”; the mutagenic call (Test System: AMES SALMONELLA TYPHIMURIUM, Strain/Indicator: TA98, Metabolic Activation: RAT, LIVER, S-9, AROCLOR 1254 (10%), Method: PREINCUBATION) was “inactive; negative”; the mutagenic call (Test System: AMES SALMONELLA TYPHIMURIUM, Strain/Indicator: TA98, Metabolic Activation: RAT, LIVER, S-9, AROCLOR 1254, Method: STANDARD PLATE) was “inactive; negative”; the mutagenic call (Test System: AMES SALMONELLA TYPHIMURIUM, Strain/Indicator: TA100, Metabolic Activation: HAMSTER, LIVER, S-9, AROCLOR 1254 (10%), Method: PREINCUBATION) is “inactive; negative”. Moreover, the mutagenic call (Test System: AMES SALMONELLA TYPHIMURIUM, Strain/Indicator: TA100, Metabolic Activation: NONE, Method: PREINCUBATION) is “inactive; negative”; the mutagenic call under setting [1] was “inactive; negative”; the mutagenic call (Test System: AMES SALMONELLA TYPHIMURIUM, Strain/Indicator: TA100, Metabolic Activation: RAT, LIVER, S-9, AROCLOR 1254 (10%), Method: PREINCUBATION) is “inactive; negative”; the mutagenic call (Test System: AMES SALMONELLA TYPHIMURIUM, Strain/Indicator: TA100, Metabolic Activation: RAT, LIVER, S-9, AROCLOR 1254, Method: STANDARD PLATE) is “inactive; negative”; the mutagenic call (Test System: AMES SALMONELLA TYPHIMURIUM, Strain/Indicator: TA1535, Metabolic Activation: HAMSTER, LIVER, S-9, AROCLOR 1254 (10%), Method: PREINCUBATION) is “inactive; negative”; the mutagenic call (Test System: AMES SALMONELLA TYPHIMURIUM, Strain/Indicator: TA1535, Metabolic Activation: NONE, Method: PREINCUBATION) was “inactive; negative”. The mutagenic call is “inactive; negative” (Test System: AMES SALMONELLA TYPHIMURIUM, Strain/Indicator: TA1535, Metabolic Activation: NONE, Method: STANDARD PLATE); “inactive; negative” (Test System: AMES SALMONELLA TYPHIMURIUM, Strain/Indicator: TA1535, Metabolic Activation: PAPS, Method: STANDARD PLATE); “inactive; negative” (Test System: AMES SALMONELLA TYPHIMURIUM, Strain/Indicator: TA1535, Metabolic Activation: RAT, LIVER, S-9, AROCLOR 1254 (10%), Method: PREINCUBATION); “active; positive” (Test System: AMES SALMONELLA TYPHIMURIUM, Strain/Indicator: TA1535, Metabolic Activation: RAT, LIVER, S-9, AROCLOR 1254, PAPS, Method: STANDARD PLATE); “inactive; negative” (Test System: AMES SALMONELLA TYPHIMURIUM, Strain/Indicator: TA1535, Metabolic Activation: RAT, LIVER, S-9, AROCLOR 1254, Method: STANDARD PLATE); “inactive; negative” (Test System: AMES SALMONELLA TYPHIMURIUM, Strain/Indicator: TA1537, Metabolic Activation: HAMSTER, LIVER, S-9, AROCLOR 1254 (10%), Method: PREINCUBATION). Further, the mutagenic call was “inactive; negative” (Test System: AMES SALMONELLA TYPHIMURIUM, Strain/Indicator: TA1537, Metabolic Activation: NONE, Method: PREINCUBATION); “inactive; negative” under setting [2]; “inactive; negative” (Test System: AMES SALMONELLA TYPHIMURIUM, Strain/Indicator: TA1537, Metabolic Activation: RAT, LIVER, S-9, AROCLOR 1254 (10%), Method: PREINCUBATION); “inactive; negative” (Test System: AMES SALMONELLA TYPHIMURIUM, Strain/Indicator: TA1537, Metabolic Activation: RAT, LIVER, S-9, AROCLOR 1254, Method: STANDARD PLATE); “inactive; negative” (Test System: AMES SALMONELLA TYPHIMURIUM, Strain/Indicator: TA1538, Metabolic Activation: NONE, Method: STANDARD PLATE); “inactive; negative” (Test System: AMES SALMONELLA TYPHIMURIUM, Strain/Indicator: TA1538, Metabolic Activation: RAT, LIVER, S-9, AROCLOR 1254, Method: STANDARD PLATE). Also, the mutagenic call (Test System: UDS RAT HEPATOCYTES, Strain/Indicator: THY INCORP, Metabolic Activation: NONE, Method: IN VITRO) is “active; positive” and the mutagenic call (Test System: UDS RAT HEPATOCYTES, Strain/Indicator: THY INCORP, Metabolic Activation: NONE, Method: IN VIVO) is “active; positive”.
On to `CC(C)CC(=O)Nc1snc2ccccc12`, for which the mutagenic call was “inactive; negative” under setting [1]; “inactive; negative” (Test System: AMES SALMONELLA TYPHIMURIUM, Strain/Indicator: TA100, Metabolic Activation: S-9, Method: STANDARD PLATE); “inactive; negative” under setting [2]; “inactive; negative” (Test System: AMES SALMONELLA TYPHIMURIUM, Strain/Indicator: TA1537, Metabolic Activation: S-9, Method: STANDARD PLATE).
